One data set deals with HeLa cells. As to the kind of experiment: HeLa cell viability by MTT at the end of the IDO1/kynurenine assay. The following applies: under the experimental conditions of the IDO1 assay. The data set is classed as cell-based, human. From the text:
It is well known that IDO1 is broadly expressed in human cancers and is induced by pro-inflammatory cytokines, such as interferon gamma (IFN-γ) and tumour necrosis factor alpha (TNF-α)[41]. Here we utilised a human cervical cancer cell line HeLa that endogenously expresses IDO1 upon IFN-γ treatment to evaluate the IDO1 inhibitory activity of the synthesised compounds by measuring kynurenine secreted into the media. This cell-based assay, as a rapid and simple method for determination IDO1/kynurenine, is closely related to the potency of the enzyme assay and has been widely used to identify various IDO1 inhibitors[19]^,[23]^,[29]^,[42]. In addition, cytotoxic compounds can reduce cell viability, which will decrease the IDO1 levels and then lower the conversion of tryptophan to kynurenine. Thus, we also employed this cellular assay to detect false positive IDO1 inhibitors and cytotoxic compounds by measuring HeLa cell viability. Clinical candidate navoximod was used as an assay control.
Furthermore, the viability of HeLa cells was evaluated by the MTT method at the end of the assay.

For another data set, the system named is IDO1 protein expression. As to the kind of experiment: Western blot of IDO1 protein expression in IFN-γ-treated HeLa cells. The data set is classed as cell-based, human. The following applies: HeLa cells, IFN-γ 100 ng/mL 24 h, then compounds at their IC50 concentrations for 24 h. The method, then: (§1) The main bioassays performed in the study, including HeLa cell-based IDO1/kynurenine assay, Western blot analysis, T cell proliferation and Treg cell differentiation experiments, were carried out as described previously.
To exclude the possibility that these secondary sulphonamides inhibit IDO1 activity by down-regulating IDO1 expression, we utilised Western blot to measure the expression of IDO1 protein in HeLa cells treated with different compounds.
Figure 3. […] (B) The greyscale scanning statistical results of A. (C) HeLa cells were incubated with compound 5d (3, 10, 30 μM) for 24 h. (D) The greyscale scanning statistical results of C. (E) HeLa cells were incubated with compound 5d (3, 10, 30 μM) for 48 h. (F) The greyscale scanning statistical results of E. Data are presented as means ± SEM (n = 3).
A general note: Immunoblotting shows a protein as a band on a membrane.

For data set [1], the target named is T1, IDO1 (Homo sapiens, UniProt P14902).
T1 construct: a human cervical cancer cell line HeLa that endogenously expresses IDO1 upon IFN-γ treatment; endogenous in cells; host or cells: HeLa cells treated with human IFN-γ
T1 sequence (P14902 whole entry): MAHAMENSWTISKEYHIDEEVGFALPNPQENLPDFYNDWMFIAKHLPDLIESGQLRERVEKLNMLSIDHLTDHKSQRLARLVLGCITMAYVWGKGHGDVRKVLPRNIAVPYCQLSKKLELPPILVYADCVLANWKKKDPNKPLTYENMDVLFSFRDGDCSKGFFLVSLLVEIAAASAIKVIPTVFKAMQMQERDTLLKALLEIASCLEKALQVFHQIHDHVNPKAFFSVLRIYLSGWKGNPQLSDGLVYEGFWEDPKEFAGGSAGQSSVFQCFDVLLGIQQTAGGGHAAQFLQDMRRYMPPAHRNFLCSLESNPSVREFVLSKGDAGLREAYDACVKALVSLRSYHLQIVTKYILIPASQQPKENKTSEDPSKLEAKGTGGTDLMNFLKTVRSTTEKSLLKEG
Put plainly: HeLa cell-based IDO1/kynurenine assay. The following applies: for IC50: HeLa cells, IFN-γ induced IDO1, kynurenine readout; for inhibition at 30 µM: percentage inhibition at 30 μM, IFN-γ-treated HeLa cells, kynurenine in media; for potency increase as compared with the hit BS-1: ratio of HeLa IC50 values. Here is the method:
as §1
It is well known that IDO1 is broadly expressed in human cancers and is induced by pro-inflammatory cytokines, such as interferon gamma (IFN-γ) and tumour necrosis factor alpha (TNF-α)[41]. Here we utilised a human cervical cancer cell line HeLa that endogenously expresses IDO1 upon IFN-γ treatment to evaluate the IDO1 inhibitory activity of the synthesised compounds by measuring kynurenine secreted into the media. […] Thus, we also employed this cellular assay to detect false positive IDO1 inhibitors and cytotoxic compounds by measuring HeLa cell viability. Clinical candidate navoximod was used as an assay control.

Data set [2] concerns the target T1, IDO1. Details: method as in earlier work. To be noted: HeLa cell assay; earlier series of N-acetyl secondary sulphonamides; cited from earlier work.
The subject of data set [3] is naïve CD4+ T cells co-cultured with B16F1 melanoma cells. Put plainly: T cell proliferation in B16F1-T cell co-culture (MTT). It is filed as cell-based, mouse. Here is the method:
as §1
T lymphocytes are exceedingly sensitive to low tryptophan levels. Overactivation of the kynurenine pathway by high IDO1 expression leads to local tryptophan depletion, which can suppress T cell proliferation by activating the GCN2 kinase pathway and eventually result in T cell anergy. Here, to determine whether secondary sulphonamides could rescue IDO1-mediated blockade of T cell proliferation, we used a co-culture of IDO1-expressing B16F1 melanoma cells with naïve CD4^+ T cells to mimic the tumour microenvironment. Given that melanoma is a highly immunogenic tumour and IDO1 constitutively expresses in melanoma cells, B16F1 murine melanoma cell lines that express IDO1 were then used to co-culture with T cells. Naïve CD4^+ T cells were isolated from spleens of C57BL/6 mice.
Figure 4. Compounds 5d and 8 g could promote the proliferation of T cells. Based on the B16F1-T cell co-culture system, use MTT assay to test T cells proliferation. The Navoximod and compounds were added to the system at the concentration of 1.5 and 18 μM. Data represent mean ± SEM (n = 3).

Data set [4] has as its system naïve CD4+ T cells co-cultured with B16F1 cells. As to the kind of experiment: FoxP3+ Treg cell differentiation in B16F1-T cell co-culture (flow cytometry). It is filed as cell-based, mouse. To be noted: for FoxP3+ Treg cell differentiation (in words): Con A, 48 h. The method, then:
as §1
Besides causing local tryptophan depletion, high IDO1 expression can also accumulate metabolites of kynurenine pathway. The elevated metabolites can not only induce effector T cell death directly through their cytotoxicity, but also promote the differentiation of naïve CD4^+ T cells into CD4^+ FoxP3^+ Treg cells by activating the AHR pathway. As a highly immunosuppressive subset of CD4^+ T cells, FoxP3^+ Treg cells are critical to the maintenance of immune homeostasis and are involved in tumour immune escape, thereby contributing to tumour development and progression. Therefore, we also utilised co-culture of B16F1 cells with naïve CD4^+ T cells to test whether the synthesised compounds could suppress IDO1 mediated Treg cell differentiation.
Figure 5. Compounds 5d and 8 g inhibited Treg cell differentiation in the cell co-culture system. (A) After co-cultured with B16F1 cells, T cells were collected. Surface staining was performed with CD4^+ FTTC and CD25^+ PE for 30 min at 4 °C. The cells were fixed and permeabilized with fixation buffer and permeabilization wash buffer. The intracellular staining was performed with FoxP3^+ APC for 20 min. The cells were then analysed by flow cytometry analysis. (B) Statistical analysis of result A. Data are represented as ± SEM (n = 3). *p < 0.05, **p < 0.01 vs T + B16F1. TEXT PRINTED IN THE PICTURE: (A) Navoximod: 8.1% (T + B16F1; 1.5 μM) | (A) 8g: 7.8% (T + B16F1; 18 μM) | (A) 5d: 2.1% (T + B16F1; 18 μM)
A general note: Flow cytometry measures light scatter and fluorescence of single cells or particles in a stream.

The test system of data set [5] is CT26 colon carcinoma. Put plainly: CT26 colon carcinoma xenograft in immunocompetent BALB/c mice (tumour growth, H&E, IHC, TUNEL, spleen FACS). It is filed as in vivo. The following applies: CT26 tumour tissue, BALB/c mice, 25 mg/kg i.p. The method, then: BALB/c mice (6–8 weeks old, 18–22 g) were supplied by Model Animal Research Centre of Nanjing University (Nanjing, China). Mice were maintained under standard specific-pathogen-free (SPF) conditions (21 ± 2 °C and 12-h light: dark cycle). Animal welfare and experimental procedures were carried out strictly in accordance with the Guide for the Care and Use of Laboratory Animals (The Ministry of Science and Technology of China, 2006) and the related ethical regulations of our university. All efforts were made to minimise animals’ suffering and to reduce the number of animals used. Mouse colon cancer cells (CT26) and melanoma cells (B16F1) were cultured and collected by centrifugation (1000 rpm, 5 min) and washed twice with ice-cold PBS. Then cells were diluted to 1 × 10^7/ml and 1 × 10^6 CT26/B16F1 cells (in 0.1 ml PBS) were injected subcutaneously into the right flanks of mice. All mice formed tumours three days after injection. Then mice were randomly distributed into five groups (n = 10/8) according to tumour volumes. 5d ([…], 12.5 mg/kg) were administered (i.g) to each group respectively every day. 5-FU (25 mg/kg) and Cis-platinum (1 mg/kg) were administered (i.p) every three days. Tumour length and tumour width were measured with a Vernier calliper every three days. Tumour volumes were measured and calculated using the equation volume = a × b^2/2, where “a” is the maximal […] and “b” is maximal orthogonal width. After the administration were completed, mice were weighed, euthanized, and tumours were removed and the weight were taken.
(§2) For immunohistochemistry staining, the sections were deparaffinized, rehydrated, and washed in 1% PBS-Tween 20, and then treated with 2% hydrogen peroxide, blocked with 3% goat serum (Life Technology, 16210–064) and incubated for 2 h at room temperature with specific primary antibodies. Then the slides were incubated with streptavidin-HRP (Shanghai Gene Company, GK500705) for 40 min, then stained with DAB (Shanghai Gene Company, GK500705) substrate and counter-stained with haematoxylin. Images were acquired by microscopy (Olympus IX51).
Given that it was the most prominent inhibitor in vitro, we chose compound 5d for further pharmacodynamic evaluation in vivo. Bowel cancer is the third leading cause of cancer in the world, thus we first evaluated the efficacy of compound 5d on the growth of murine CT26 colon carcinoma xenograft model in immunocompetent BALB/c mice. Fluorouracil (5-FU) is one of the most commonly used drugs to different cancers including bowel cancer, and was used as the positive control. The CT26 tumour-bearing mice were treated with 5d (3.125, 6.25, 12.5 mg/kg, i.g, every day) or 5-FU (25 mg/kg, i.p, […]). Tumour volumes were measured every two days for 14 days.
Figure 7. Compound 5d suppressed colon cancer growth in immunocompetent mice. 1 × 10^6 CT26 cells were transplanted subcutaneously into the armpit of the BALB/c mice. Three days after transplantation, mice were randomly allocated to vehicle control or treatment groups (n = 10). Drugs were administered on days 1–14. Tumour volume (A) and mice body weight (B) were recorded. After sacrifice, solid tumours were separated and weighed (C, D). Data represent mean ± SEM, n = 10, *p < 0.05, **p < 0.01 vs vehicle.
In order to further observe morphological changes in tumour tissues after administration of compound 5d, the tumour tissue sections obtained from the BALB/c mice bearing CT26 colorectal tumours were stained with haematoxylin-eosin (H&E) to highlight different tissue structures, such as the nucleus and cytoplasm.
Then, to understand the mechanism of tumour cell death, we detected the level of proliferating cell nuclear antigen (PCNA) protein and tumour cell apoptosis by immunohistochemistry (IHC) and terminal deoxynucleotidyl transferase dUTP nick end labelling (TUNEL) experiments, respectively. […]

For data set [6], the system named is CT26 colon carcinoma. Put plainly: CT26 colon carcinoma xenograft in immunodeficient BALB/c nude mice. The following applies: BALB/c nude mice, 25 mg/kg i.p, vs vehicle. It is filed as in vivo, mouse. Here is the method:
Eight-week-old male BALB/c nude mice, weighing 18–22 g, were supplied by Model Animal Research Centre of Nanjing University (Nanjing, China). 1 × 10^7/ml and 1 × 10^6 CT26 cells (in 0.1 ml PBS) were injected subcutaneously into the right flanks of mice. After CT26 xenograft BALB/c nude mouse model was established, all mice were randomly divided into three groups (n = 8). 5d (12.5 mg/kg) were administered (i.g) every day and 5-FU (25 mg/kg) awere administered (i.p) every three days. The following experimental procedures were similar to the described above.
as §2
Then, in order to clarify whether the in vivo antitumour efficacy of compound 5d was related to the mouse immune system, we repeated the above experiment in immunodeficient nude mice. Briefly, BALB/c nude mice bearing established CT26 colon carcinoma xenograft were treated with compound 5d and 5-FU for 10 days.
Figure 8. […] 1 × 10^6 CT26 cells were transplanted subcutaneously into the armpit of immunodeficient BALB/c nude mice. Three days after transplantation, mice were randomly allocated to vehicle control or treatment groups (n = 8). Drugs were administered on days 1–9. (A) Tumour volume and mouse body weight (B) were recorded. After sacrifice, solid tumours were separated and weighed (C, D). Data represent mean ± SEM, n = 8, *p < 0.05, **p < 0.01 vs vehicle.
To verify the above conclusions, we further performed H&E and IHC staining on the nude mouse CT26 tumour tissues. […] These findings further supported the above conclusions.

SMILES strings stand for the structures. Where two headings read alike, the source gives them in different places.

As usually defined, the melting point is the temperature, or range, at which the solid turns liquid. Usually IC50 stands for the concentration that inhibits the measured activity by half. Usually inhibition stands for how much of the control response was suppressed. The compound `C=CC(=O)Nc1ccc(S(=O)(=O)NCc2cccc(Br)c2)cc1` [5l, N-(4-(N-(3-Bromobenzyl)sulfamoyl)phenyl)acrylamide] yielded a melting point of 156 to 158 °C. Besides, the HeLa cell viability entry in the data set on HeLa cells was “without affecting the cell viability”. For the same compound, in the data set with IDO1 protein expression, the “expression of IDO1 protein” value is on record as “did not influence IDO1 expression”. Moreover, at IDO1 [1], the 50% inhibitory concentration (IC50) was 6.64 µM, the inhibition at 30 µM was 89.1% and the “potency increase as compared with the hit BS-1” value (shortened to “potency increase”) worked out at 7.4 fold.

With `COc1ccc(CNS(=O)(=O)c2ccc(NC(C)=O)cc2)cc1` [N-(4-(N-(4-methoxybenzyl)sulfamoyl)phenyl)acetamide, reference compound], the IC50 on IDO1 [2] was 5.88 µM. The “potency increase” value on IDO1 [1] was determined as 8.4 fold.

As for `O[C@H](C[C@H]1c2c(F)cccc2-c2cncn21)[C@H]1CC[C@H](O)CC1` [Navoximod, (1R,4r)-4-((R)-2-((S)-6-fluoro-5H-imidazo[5,1-a]isoindol-5-yl)-1-hydroxyethyl)cyclohexan-1-ol, reference compound], the T cell proliferation entry in [3] (1.5 μM) is listed as “significant augmentation on T cell activity”. Besides, in [4] (1.5 μM), the “FoxP3+ Treg cells (flow cytometry)” value was 8.1% and the “FoxP3+ Treg cell differentiation (in words)” value is reported as “significantly reduce FoxP3^+ Treg cell differentiation”.

As for `O=c1[nH]cc(F)c(=O)[nH]1` [5-FU, Fluorouracil, reference compound], in the data set on CT26 colon carcinoma [5], the “expression of PCNA protein (IHC)” value is reported as “significantly reduced”, the “number of tumour cells (H&E staining)” value was “significantly reduced” and the “tumour cell apoptosis (TUNEL)” value was “apoptosis increased”. The tumour growth entry in the data set on CT26 colon carcinoma [6] is recorded as “significantly suppressed tumour growth”.

For `C=CC(=O)Nc1ccc(S(=O)(=O)Nc2ccc(F)c(Cl)c2)cc1` [8g, N-(4-(N-(3-Chloro-4-fluorophenyl)sulfamoyl)phenyl)acrylamide], the T cell proliferation result in [3] (18 μM) is recorded as “significant augmentation on T cell activity”. Also, the HeLa cell viability result in the data set with HeLa cells is “without affecting the cell viability”. Also, the “expression of IDO1 protein” value with IDO1 protein expression is “did not influence IDO1 expression”. On IDO1 [1], the IC50 was determined as 3.76 µM, the inhibition at 30 µM is 93.2% and the “potency increase” value is given as 13.1 fold. Moreover, in data set [4] (18 μM), the “FoxP3+ Treg cells (flow cytometry)” value turned out to be 7.8% and the “FoxP3+ Treg cell differentiation (in words)” value is recorded as “significantly reduce FoxP3^+ Treg cell differentiation”.

The record behind these values is PMC7336998, “Discovery of secondary sulphonamides as IDO1 inhibitors with potent antitumour effects in vivo” (Journal of Enzyme Inhibition and Medicinal Chemistry, 2020).
